Species: Rattus norvegicus
Assay: DrugMatrix - Regimen: Daily Repeat
Assay type: toxicity, organism-based, Sprague-Dawley
Parameters: regimen Daily Repeat, gender Male, age 6-8 weeks
Settings: in vivo, po, route oral GAVAGE, […]; for ABSOLUTE BASOPHIL / ABSOLUTE EOSINOPHIL / ABSOLUTE LYMPHOCYTE / ABSOLUTE MONOCYTE / ABSOLUTE SEGMENTED NEUTROPHIL / BASOPHIL / EOSINOPHIL / ERYTHROCYTE COUNT / HEMATOCRIT / HEMOGLOBIN / LEUKOCYTE COUNT / LYMPHOCYTE / MEAN CORPUSCULAR HEMOGLOBIN / MEAN CORPUSCULAR HEMOGLOBIN CONCENTRATION / MEAN CORPUSCULAR VOLUME / MONOCYTE / NEUTROPHIL / NUCLEATED RED BLOOD CELLS / PLATELET COUNT: tissue Blood; for ALANINE AMINOTRANSFERASE / ALBUMIN / ALKALINE PHOSPHATASE / ASPARTATE AMINOTRANSFERASE / BLOOD UREA NITROGEN / CARBON DIOXIDE / CHLORIDE / CHOLESTEROL / CREATINE PHOSPHOKINASE / CREATININE / GLUCOSE / LACTATE DEHYDROGENASE / LIPASE / PHOSPHORUS / SODIUM / TOTAL BILIRUBIN / TOTAL PROTEIN / URIC ACID: tissue Plasma
[1] = 0 mg/kg, 72 h, dose level Control, time 3 day
[2] = 0 mg/kg, 120 h, dose level Control, time 5 day
[3] = 450 mg/kg, 72 h, dose level Low, time 3 day

CC[C@H](C)C(=O)O[C@H]1C[C@@H](C)C=C2C=C[C@H](C)[C@H](CC[C@@H]3C[C@@H](O)CC(=O)O3)[C@H]21 [LOVASTATIN]
ABSOLUTE BASOPHIL [1]: 0 CELLS/uL | ABSOLUTE EOSINOPHIL [1]: 52.33 CELLS/uL | ABSOLUTE LYMPHOCYTE [1]: 9105.33 CELLS/uL | ABSOLUTE MONOCYTE [1]: 155.67 CELLS/uL | ABSOLUTE SEGMENTED NEUTROPHIL [1]: 1020 CELLS/uL | BASOPHIL [1]: 0% | EOSINOPHIL [1]: 0.33% | ERYTHROCYTE COUNT [1]: 5.03 x10E6/uL | HEMATOCRIT [1]: 31.63% | HEMOGLOBIN [1]: 12.37 G/DL | LEUKOCYTE COUNT [1]: 10.33 x10E3/uL | LYMPHOCYTE [1]: 87% | MEAN CORPUSCULAR HEMOGLOBIN [1]: 24.57 pg | MEAN CORPUSCULAR HEMOGLOBIN CONCENTRATION [1]: 39.07 G/DL | MEAN CORPUSCULAR VOLUME [1]: 62.93 fL | MONOCYTE [1]: 1.33% | NEUTROPHIL [1]: 11.33% | NUCLEATED RED BLOOD CELLS [1]: 0 /100WBC | PLATELET COUNT [1]: 896 x10E3/uL | ALANINE AMINOTRANSFERASE [1]: 75.33 u/L | ALBUMIN [1]: 3.77 G/DL | ALKALINE PHOSPHATASE [1]: 378.67 u/L | ASPARTATE AMINOTRANSFERASE [1]: 101.33 u/L | BLOOD UREA NITROGEN [1]: 11.33 mg/dL | CARBON DIOXIDE [1]: 25 mmol/L | CHLORIDE [1]: 99 MEQ/L | CHOLESTEROL [1]: 66 mg/dL | CREATINE PHOSPHOKINASE [1]: 277 u/L | CREATININE [1]: 0.33 mg/dL | GLUCOSE [1]: 198.33 mg/dL | LACTATE DEHYDROGENASE [1]: 140.33 u/L | LIPASE [1]: 11.33 u/L | PHOSPHORUS [1]: 11.83 mg/dL | SODIUM [1]: 141.03 MEQ/L | TOTAL BILIRUBIN [1]: 0.2 mg/dL | TOTAL PROTEIN [1]: 5.47 G/DL | URIC ACID [1]: 0.93 mg/dL | ABSOLUTE BASOPHIL [2]: 0 CELLS/uL | ABSOLUTE EOSINOPHIL [2]: 0 CELLS/uL | ABSOLUTE LYMPHOCYTE [2]: 8734 CELLS/uL | ABSOLUTE MONOCYTE [2]: 98.67 CELLS/uL | ABSOLUTE SEGMENTED NEUTROPHIL [2]: 1034 CELLS/uL | BASOPHIL [2]: 0% | EOSINOPHIL [2]: 0% | ERYTHROCYTE COUNT [2]: 5.19 x10E6/uL | HEMATOCRIT [2]: 33.2% | HEMOGLOBIN [2]: 12.93 G/DL | LEUKOCYTE COUNT [2]: 9.87 x10E3/uL | LYMPHOCYTE [2]: 87% | MEAN CORPUSCULAR HEMOGLOBIN [2]: 25 pg | MEAN CORPUSCULAR HEMOGLOBIN CONCENTRATION [2]: 39.03 G/DL | MEAN CORPUSCULAR VOLUME [2]: 63.93 fL | MONOCYTE [2]: 1% | NEUTROPHIL [2]: 12% | NUCLEATED RED BLOOD CELLS [2]: 0 /100WBC | PLATELET COUNT [2]: 1190 x10E3/uL | ALANINE AMINOTRANSFERASE [2]: 75.67 u/L | ALBUMIN [2]: 4 G/DL | ALKALINE PHOSPHATASE [2]: 384.33 u/L | ASPARTATE AMINOTRANSFERASE [2]: 89.67 u/L | BLOOD UREA NITROGEN [2]: 13 mg/dL | CARBON DIOXIDE [2]: 32.67 mmol/L | CHLORIDE [2]: 103 MEQ/L | CHOLESTEROL [2]: 79.67 mg/dL | CREATINE PHOSPHOKINASE [2]: 199.33 u/L | CREATININE [2]: 0.29 mg/dL | GLUCOSE [2]: 161.33 mg/dL | LACTATE DEHYDROGENASE [2]: 92.33 u/L | LIPASE [2]: 11.67 u/L | PHOSPHORUS [2]: 10.8 mg/dL | SODIUM [2]: 145.3 MEQ/L | TOTAL BILIRUBIN [2]: 0.17 mg/dL | TOTAL PROTEIN [2]: 5.7 G/DL | URIC ACID [2]: 0.63 mg/dL | ABSOLUTE BASOPHIL [3]: 0 CELLS/uL | ABSOLUTE EOSINOPHIL [3]: 0 CELLS/uL | ABSOLUTE LYMPHOCYTE [3]: 6372 CELLS/uL | ABSOLUTE MONOCYTE [3]: 86.67 CELLS/uL | ABSOLUTE SEGMENTED NEUTROPHIL [3]: 1174.67 CELLS/uL | BASOPHIL [3]: 0% | EOSINOPHIL [3]: 0% | ERYTHROCYTE COUNT [3]: 5.39 x10E6/uL | HEMATOCRIT [3]: 33.63% | HEMOGLOBIN [3]: 13.47 G/DL | LEUKOCYTE COUNT [3]: 7.63 x10E3/uL | LYMPHOCYTE [3]: 82.67% | MEAN CORPUSCULAR HEMOGLOBIN [3]: 25 pg | MEAN CORPUSCULAR HEMOGLOBIN CONCENTRATION [3]: 40.07 G/DL | MEAN CORPUSCULAR VOLUME [3]: 62.43 fL | MONOCYTE [3]: 1.33% | NEUTROPHIL [3]: 16% | NUCLEATED RED BLOOD CELLS [3]: 0 /100WBC | PLATELET COUNT [3]: 1202.67 x10E3/uL | ALANINE AMINOTRANSFERASE [3]: 138.33 u/L | ALBUMIN [3]: 4.13 G/DL | ALKALINE PHOSPHATASE [3]: 450.67 u/L | ASPARTATE AMINOTRANSFERASE [3]: 224.33 u/L | BLOOD UREA NITROGEN [3]: 11 mg/dL | CARBON DIOXIDE [3]: 27.67 mmol/L | CHLORIDE [3]: 97.33 MEQ/L | CHOLESTEROL [3]: 35 mg/dL | CREATINE PHOSPHOKINASE [3]: 505 u/L | CREATININE [3]: 0.16 mg/dL | GLUCOSE [3]: 146 mg/dL | LACTATE DEHYDROGENASE [3]: 223.33 u/L | LIPASE [3]: 10.67 u/L | PHOSPHORUS [3]: 10.17 mg/dL | SODIUM [3]: 140.53 MEQ/L | TOTAL BILIRUBIN [3]: 0.1 mg/dL | TOTAL PROTEIN [3]: 5.37 G/DL | URIC ACID [3]: 0.5 mg/dL
